For this test, the system named is primary rat mixed cortical cells. Put plainly: In vitro myelination assay (MBP positive myelin strands, fold myelin pixels above background). It counts as cell-based. To be noted: Rattus norvegicus; for fold induction at 1 µM: 1.0 μM compound; for fold induction at 10 µM: 10.0 μM compound. An outline of the steps: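 Myelination read as total MBP-immunopositive strand pixels per well, imaged at 10× after fixation on day 14 and expressed relative to untreated wells, at 1.0 and 10.0 μM. Cells: dissociated postnatal day 1 rat cortex, cultured two weeks with compound, re-dosed at days 6 and 10.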

Setting [1] is: read-out: Fold myelin pixels above background relative to baseline of no added compound.
The mark [2] stands for this setting: relative to baseline of no added compound, read-out: Fold myelin pixels above background, 1.0 μM.
[3] abbreviates: relative to baseline of no added compound, read-out: Fold myelin pixels above background, 10.0 μM.
The mark [4] stands for this setting: relative to baseline of no added compound, read-out: Fold myelin pixels above background.

Like-named read-outs stand apart in the source and are kept apart here.

For the molecule `CC1(N2CCN(c3cc(C(F)F)cc(Nc4ncn(-c5cccc(F)c5)n4)n3)CC2)COC1` [Compound 823, 4-(difluoromethyl)-N-[1-(3-fluorophenyl)-1,2,4-triazol-3-yl]-6-[4-(3-methyloxetan-3-yl)piperazin-1-yl]pyridin-2-amine], under setting [1], the fold induction at 1 µM was 10 to 100 and the fold induction at 10 µM was in the range of 10 to 100.
As for `Cc1cc(Nc2ncn(-c3cc(F)cc(F)c3)n2)c(F)c(NC2COC2)c1` [Compound 915, N3-[1-(3,5-difluorophenyl)-1,2,4-triazol-3-yl]-2-fluoro-5-methyl-N1-(oxetan-3-yl)benzene-1,3-diamine], under setting [1], the fold induction at 1 µM is 1 to 10 and the fold induction at 10 µM was at most 1.
For the molecule `Cc1cc(Nc2ncn(-c3cc(F)cc(F)c3)n2)cc(N2CCN(C3CS(=O)(=O)C3)CC2)c1` [Compound 228, 1-(3,5-difluorophenyl)-N-[3-[4-(1,1-dioxothietan-3-yl)piperazin-1-yl]-5-methyl-phenyl]-1,2,4-triazol-3-amine], under setting [2], the fold induction at 1 µM is 10 to 100. Further, the fold induction at 10 µM under setting [3] is 100 to 1000.
For `Cc1cc(Nc2ncn(-c3ccc(F)c(C)c3)n2)cc(N2CCN(C3COC3)CC2)c1` [Compound 780, 1-(4-fluoro-3-methyl-phenyl)-N-[3-methyl-5-[4-(oxetan-3-yl)piperazin-1-yl]phenyl]-1,2,4-triazol-3-amine], under setting [4], the fold induction at 1 µM lay within 1 to 10 and the fold induction at 10 µM fell in the range of 1 to 10.
For the molecule `Cc1cc(Nc2ncn(-c3cc(F)cc(F)c3)n2)cc(N2CC(N3CCOCC3)CC2C)c1` (stereo not drawn) [Compound 920, 1-(3,5-difluorophenyl)-N-[3-methyl-5-(2-methyl-4-morpholino-pyrrolidin-1-yl)phenyl]-1,2,4-triazol-3-amine], under setting [1], the fold induction at 1 µM lay in the range of 10 to 100 and the fold induction at 10 µM was at most 1.
Consider `CCc1cc(Nc2ncn(-c3ccnc(F)c3)n2)cc(N2CCN(C3COC3)CC2)c1` [Compound 16, N-[3-ethyl-5-[4-(oxetan-3-yl)piperazin-1-yl]phenyl]-1-(2-fluoro-4-pyridyl)-1,2,4-triazol-3-amine], for which the fold induction at 1 µM under setting [2] lay in the range of 100 to 1000. The fold induction at 10 µM under setting [3] lay in the range of 10 to 100.
The corresponding values for `CC(C)c1cc(Nc2ncn(-c3cc(F)cc(F)c3)n2)cc(N2CCN(C3COC3)CC2)c1` [Compound 359, 1-(3,5-difluorophenyl)-N-[3-isopropyl-5-[4-(oxetan-3-yl)piperazin-1-yl]phenyl]-1,2,4-triazol-3-amine] are 1000 to 10000 and at most 1.
For `Cc1cc(Nc2ncn(-c3cc(F)cc(F)c3)n2)cc(C2CCCNC2)c1` (stereo not drawn) [Compound 429, 1-(3,5-difluorophenyl)-N-[3-methyl-5-(3-piperidyl)phenyl]-1,2,4-triazol-3-amine], under setting [4], the fold induction at 1 µM lay in the range of 1000 to 10000 and the fold induction at 10 µM is at most 1.
As to `Cc1cc(Nc2ncn(-c3ccccc3)n2)cc(C2CN(C3COC3)C2)c1` [Compound 65, N-[3-methyl-5-[1-(oxetan-3-yl)azetidin-3-yl]phenyl]-1-phenyl-1,2,4-triazol-3-amine], under setting [2], the fold induction at 1 µM is 1000 to 10000. Also, the fold induction at 10 µM under setting [3] fell in the range of 1 to 10.
For `Cc1cc(Nc2ncn(-c3ccnc(F)c3)n2)cc(NC2CCN(C3COC3)C2)c1` (stereo not drawn) [Compound 249, N3-[1-(2-fluoro-4-pyridyl)-1,2,4-triazol-3-yl]-5-methyl-N1-[1-(oxetan-3-yl)pyrrolidin-3-yl]benzene-1,3-diamine], under setting [2], the fold induction at 1 µM lay in the range of 10 to 100. Under setting [3], the fold induction at 10 µM was at most 1.
For the molecule `FC(F)c1cccc(-n2cnc(Nc3cc(C(F)F)cc(N4CCN(C5COC5)CC4)n3)n2)c1` [Compound 718, 4-(difluoromethyl)-N-[1-[3-(difluoromethyl)phenyl]-1,2,4-triazol-3-yl]-6-[4-(oxetan-3-yl)piperazin-1-yl]pyridin-2-amine], under setting [4], the fold induction at 1 µM fell in the range of 10 to 100 and the fold induction at 10 µM lay within 100 to 1000.
The corresponding values for `Cc1cc(Nc2ncn(-c3cccc(C#N)c3)n2)cc(N2CCN(C)CC2)c1` [Compound 499, 3-[3-[3-methyl-5-(4-methylpiperazin-1-yl)anilino]-1,2,4-triazol-1-yl]benzonitrile] are 100 to 1000 and 10 to 100.
The corresponding values for `Cc1cc(Nc2ncn(-c3cc(F)cc(F)c3)n2)cc(N2CC3CCC(C2)O3)c1` [Compound 692, 1-(3,5-difluorophenyl)-N-[3-methyl-5-(8-oxa-3-azabicyclo[3.2.1]octan-3-yl)phenyl]-1,2,4-triazol-3-amine] are 10 to 100 and 10 to 100.
The corresponding values for `Cc1cc(Nc2ncn(-c3cc(F)cc(F)c3)n2)cc(O[C@H]2C[C@H](N3CCOCC3)C2)c1` [Compound 752, 1-(3,5-difluorophenyl)-N-[3-methyl-5-(3-morpholinocyclobutoxy)phenyl]-1,2,4-triazol-3-amine] are 10 to 100 and 1 to 10.
For the molecule `Cc1cc(Nc2ncn(-c3cc(F)cc(F)c3)n2)cc(NC2CCN(CC3CCCO3)CC2)c1` (stereo not drawn) [Compound 891, N3-[1-(3,5-difluorophenyl)-1,2,4-triazol-3-yl]-5-methyl-N1-[1-(tetrahydrofuran-2-ylmethyl)-4-piperidyl]benzene-1,3-diamine], under setting [1], the fold induction at 1 µM fell in the range of 1 to 10 and the fold induction at 10 µM is at most 1.
Take `Cc1cc(Nc2ncn(-c3cc(F)cc(F)c3)n2)cc(N2CC(C(=O)N3CCOCC3)C2)c1` [Compound 690, [1-[3-[[1-(3,5-difluorophenyl)-1,2,4-triazol-3-yl]amino]-5-methyl-phenyl]azetidin-3-yl]-morpholino-methanone]: under setting [4], the fold induction at 1 µM was 1 to 10 and the fold induction at 10 µM lay in the range of 10 to 100.
Turning to `CNC1CCN(c2cc(C)cc(Nc3ncn(-c4cc(F)cc(F)c4)n3)c2)C1` (stereo not drawn) [Compound 267, 1-(3,5-difluorophenyl)-N-[3-methyl-5-[3-(methylamino)pyrrolidin-1-yl]phenyl]-1,2,4-triazol-3-amine], under setting [2], the fold induction at 1 µM lay in the range of 10 to 100. For the same molecule, under setting [3], the fold induction at 10 µM is at most 1.
As to `Cc1cc(Nc2ncn(-c3cc(F)cc(F)c3)n2)cc(N2CCN(CCOCCO)CC2)c1` [Compound 1033, 2-[2-[4-[3-[[1-(3,5-difluorophenyl)-1,2,4-triazol-3-yl]amino]-5-methyl-phenyl]piperazin-1-yl]ethoxy]ethanol], under setting [1], the fold induction at 1 µM is 1 to 10 and the fold induction at 10 µM was at most 1.
`Cc1cc(Nc2ncn(-c3cc(F)cc(F)c3)n2)cc(N2C[C@H]3C[C@@H]2CN3C2COC2)c1` [Compound 185, 1-(3,5-difluorophenyl)-N-[3-methyl-5-[(1R,4R)-2-(oxetan-3-yl)-2,5-diazabicyclo[2.2.1]heptan-5-yl]phenyl]-1,2,4-triazol-3-amine]: the fold induction at 1 µM under setting [2] lay in the range of 100 to 1000. Further, under setting [3], the fold induction at 10 µM lay within 1 to 10.
For `Cc1cc(Nc2ncn(-c3cncc(F)c3)n2)cc(N2CCN(C)CC2)c1` [Compound 387, 1-(5-fluoro-3-pyridyl)-N-[3-methyl-5-(4-methylpiperazin-1-yl)phenyl]-1,2,4-triazol-3-amine], under setting [4], the fold induction at 1 µM lay in the range of 10 to 100 and the fold induction at 10 µM was in the range of 100 to 1000.
The corresponding values for `N#Cc1cc(Nc2ncn(-c3ccc(F)c(F)c3)n2)cc(N2CCOCC2)c1` [Compound 668, 3-[[1-(3,4-difluorophenyl)-1,2,4-triazol-3-yl]amino]-5-morpholino-benzonitrile] are 1 to 10 and 1 to 10.
As for `Fc1cc(Nc2ncn(-c3cc(F)cc(F)c3)n2)cc(C2CCN(C3COC3)C2)c1` (stereo not drawn) [Compound 268, 1-(3,5-difluorophenyl)-N-[3-fluoro-5-[1-(oxetan-3-yl)pyrrolidin-3-yl]phenyl]-1,2,4-triazol-3-amine], the fold induction at 1 µM under setting [2] is 100 to 1000. Further, under setting [3], the fold induction at 10 µM was 1000 to 10000.
As for `Cc1cc(Nc2ncn(-c3cccc(F)c3)n2)c(F)c(N2CCN(C3COC3)CC2)c1` [Compound 955, N-[2-fluoro-5-methyl-3-[4-(oxetan-3-yl)piperazin-1-yl]phenyl]-1-(3-fluorophenyl)-1,2,4-triazol-3-amine], under setting [1], the fold induction at 1 µM was in the range of 10 to 100 and the fold induction at 10 µM was 1 to 10.
With `COc1cc(OC)cc(-n2cnc(Nc3cc(C4CC4)nc(N4CCOCC4)c3)n2)c1` [Compound 210, 2-cyclopropyl-N-[1-(3,5-dimethoxyphenyl)-1,2,4-triazol-3-yl]-6-morpholino-pyridin-4-amine], the fold induction at 1 µM under setting [2] is at most 1. Besides, the fold induction at 10 µM under setting [3] lay within 100 to 1000.
As to `CC(=O)OCC(C)(COC(C)=O)N1CCN(c2cc(C)cc(Nc3ncn(-c4cc(F)cc(F)c4)n3)c2)CC1` [Compound 505, [3-acetoxy-2-[4-[3-[[1-(3,5-difluorophenyl)-1,2,4-triazol-3-yl]amino]-5-methyl-phenyl]piperazin-1-yl]-2-methyl-propyl] acetate], under setting [4], the fold induction at 1 µM fell in the range of 10 to 100 and the fold induction at 10 µM is at most 1.
As to `[2H]C1(N2CCN(c3cc(C)cc(Nc4ncn(-c5ccccc5)n4)c3)CC2)CCOC1` (stereo not drawn) [Compound 1039, N-[3-[4-(3-deuteriotetrahydrofuran-3-yl)piperazin-1-yl]-5-methyl-phenyl]-1-phenyl-1,2,4-triazol-3-amine], under setting [1], the fold induction at 1 µM was 10 to 100 and the fold induction at 10 µM was at most 1.
In the case of `Cc1cc(Nc2ncn(-c3cnccn3)n2)cc(N2CCN(C3(C)COC3)CC2)c1` [Compound 136, N-[3-methyl-5-[4-(3-methyloxetan-3-yl)piperazin-1-yl]phenyl]-1-pyrazin-2-yl-1,2,4-triazol-3-amine], the fold induction at 1 µM under setting [2] was 1 to 10. Further, the fold induction at 10 µM under setting [3] lay within 10 to 100.

The record behind these values is patent US10766869B2, “Triazoles for the treatment of demyelinating dieases” (Vertex Pharmaceuticals Incorporated, priority 2015, dated 2020).
